By Ki is commonly meant a measure of affinity in units of concentration, obtained from inhibition or displacement.

Chain of GST-Bc1-2 (P10415 whole entry): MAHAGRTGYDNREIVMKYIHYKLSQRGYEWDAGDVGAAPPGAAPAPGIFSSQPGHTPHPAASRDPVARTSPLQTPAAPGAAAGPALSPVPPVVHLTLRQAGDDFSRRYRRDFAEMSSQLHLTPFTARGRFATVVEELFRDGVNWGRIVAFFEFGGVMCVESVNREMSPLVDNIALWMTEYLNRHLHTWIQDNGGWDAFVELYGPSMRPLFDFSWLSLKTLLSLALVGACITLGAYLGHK

The assay concerns the target GST-Bc1-2 (Homo sapiens, UniProt P10415). The assay is described as follows: Time Resolved-Fluorescence Resonance Energy Transfer (TR-FRET) Bcl-2 binding assay with F-Bak peptide probe. The following applies: GST-Bcl-2 1 nM, F-Bak probe 100 nM, Tb-anti-GST 1 nM; '<' = below limit of detection; read-out: TR-FRET Bcl-2 Binding Ki. A general note: Time-resolved FRET reads energy transfer from a long-lived donor to a nearby acceptor.
With `CN1CCC(F)(COc2ccc(S(=O)(=O)NC(=O)c3ccc(N4CCN(CC5=C(c6ccc(Cl)cc6)CC(C)(C)CC5)CC4)cc3Oc3cnc4[nH]ccc4c3)cc2S(=O)(=O)C(F)(F)F)CC1` [Example 230, 4-(4-{[2-(4-chlorophenyl)-4,4-dimethylcyclohex-1-en-1-yl]methyl}piperazin-1-yl)-N-({4-[(4-fluoro-1-methylpiperidin-4-yl)methoxy]-3-[(trifluoromethyl)sulfonyl]phenyl}sulfonyl)-2-(1H-pyrrolo[2,3-b]pyridin-5-yloxy)benzamide], the inhibition constant Ki was 0.031 nM.
For `CC1(C)CCC(CN2CCN(c3ccc(C(=O)NS(=O)(=O)c4ccc(NN5CCN(C(=O)OC(C)(C)C)CC5)c([N+](=O)[O-])c4)c(Oc4cnc5[nH]ccc5c4)c3)CC2)=C(c2ccc(Cl)cc2)C1` [Example 232, tert-butyl 4-[(4-{[4-(4-{[2-(4-chlorophenyl)-4,4-dimethylcyclohex-1-en-1-yl]methyl}piperazin-1-yl)-2-(1H-pyrrolo[2,3-b]pyridin-5-yloxy)benzoyl]sulfamoyl}-2-nitrophenyl)amino]piperazine-1-carboxylate], the Ki came out at 1.63 nM.
Then `CC1(C)CCC(CN2CCN(c3ccc(C(=O)NS(=O)(=O)c4ccc(NCC5CCOCC5)c(S(F)(F)(F)(F)F)c4)c(Oc4cnc5[nH]ccc5c4)c3)CC2)=C(c2ccc(Cl)cc2)C1` [Example 233, 4-(4-{[2-(4-chlorophenyl)-4,4-dimethylcyclohex-1-en-1-yl]methyl}piperazin-1-yl)-N-({3-(pentafluoro-lambda˜6˜-sulfanyl)-4-[(tetrahydro-2H-pyran-4-ylmethyl)amino]phenyl}sulfonyl)-2-(1H-pyrrolo[2,3-b]pyridin-5-yloxy)benzamide], with 1.65 nM; and `COC1(COc2ccc(S(=O)(=O)NC(=O)c3ccc(N4CCN(CC5=C(c6ccc(Cl)cc6)CC(C)(C)CC5)CC4)cc3Oc3cnc4[nH]ccc4c3)cc2[N+](=O)[O-])CCOCC1` [Example 234, 4-(4-{[2-(4-chlorophenyl)-4,4-dimethylcyclohex-1-en-1-yl]methyl}piperazin-1-yl)-N-({4-[(4-methoxytetrahydro-2H-pyran-4-yl)methoxy]-3-nitrophenyl}sulfonyl)-2-(1H-pyrrolo[2,3-b]pyridin-5-yloxy)benzamide], with 0.115 nM.
Under `CC1(C)CCC(CN2CCN(c3ccc(C(=O)NS(=O)(=O)c4ccc(O[C@@H]5CCN(C(CF)CF)C5)c([N+](=O)[O-])c4)c(Oc4cnc5[nH]ccc5c4)c3)CC2)=C(c2ccc(Cl)cc2)C1` [Example 235, 4-(4-{[2-(4-chlorophenyl)-4,4-dimethylcyclohex-1-en-1-yl]methyl}piperazin-1-yl)-N-[(4-{[(3R)-1-(1,3-difluoropropan-2-yl)pyrrolidin-3-yl]oxy}-3-nitrophenyl)sulfonyl]-2-(1H-pyrrolo[2,3-b]pyridin-5-yloxy)benzamide] stands 0.023 nM; under `CC1(C)CCC(CN2CCN(c3ccc(C(=O)NS(=O)(=O)c4ccc(NN5CCN(C6COC6)CC5)c([N+](=O)[O-])c4)c(Oc4cnc5[nH]ccc5c4)c3)CC2)=C(c2ccc(Cl)cc2)C1` [Example 236, 4-(4-{[2-(4-chlorophenyl)-4,4-dimethylcyclohex-1-en-1-yl]methyl}piperazin-1-yl)-N-[(3-nitro-4-{[4-(oxetan-3-yl)piperazin-1-yl]amino}phenyl)sulfonyl]-2-(1H-pyrrolo[2,3-b]pyridin-5-yloxy)benzamide], 0.033 nM; under `CC1(C)CCC(CN2CCN(c3ccc(C(=O)NS(=O)(=O)c4ccc(NN5CCN(C6CCOCC6)CC5)c([N+](=O)[O-])c4)c(Oc4cnc5[nH]ccc5c4)c3)CC2)=C(c2ccc(Cl)cc2)C1` [Example 237, 4-(4-{[2-(4-chlorophenyl)-4,4-dimethylcyclohex-1-en-1-yl]methyl}piperazin-1-yl)-N-[(3-nitro-4-{[4-(tetrahydro-2H-pyran-4-yl)piperazin-1-yl]amino}phenyl)sulfonyl]-2-(1H-pyrrolo[2,3-b]pyridin-5-yloxy)benzamide], 0.024 nM.
Then `CC1(C)CCC(CN2CCN(c3ccc(C(=O)NS(=O)(=O)c4ccc(N[C@@H]5CCOC5)c([N+](=O)[O-])c4)c(Oc4cnc5[nH]ccc5c4)c3)CC2)=C(c2ccc(Cl)cc2)C1` [Example 238, 4-(4-{[2-(4-chlorophenyl)-4,4-dimethylcyclohex-1-en-1-yl]methyl}piperazin-1-yl)-N-({3-nitro-4-[(3R)-tetrahydrofuran-3-ylamino]phenyl}sulfonyl)-2-(1H-pyrrolo[2,3-b]pyridin-5-yloxy)benzamide], with under 0.01 nM.
`CC1(C)CCC(CN2CCN(c3ccc(C(=O)NS(=O)(=O)c4ccc(NCC5CCC(F)(F)CC5)c([N+](=O)[O-])c4)c(Oc4cnc5[nH]ccc5c4)c3)CC2)=C(c2ccc(Cl)cc2)C1` [Example 239, 4-(4-{[2-(4-chlorophenyl)-4,4-dimethylcyclohex-1-en-1-yl]methyl}piperazin-1-yl)-N-[(4-{[(4,4-difluorocyclohexyl)methyl]amino}-3-nitrophenyl)sulfonyl]-2-(1H-pyrrolo[2,3-b]pyridin-5-yloxy)benzamide]: the Ki was 0.026 nM.
Then `CC1(C)CCC(CN2CCN(c3ccc(C(=O)NS(=O)(=O)c4ccc(NC5CCN(C(C)(C)C)CC5)c(S(=O)(=O)C(F)(F)F)c4)c(Oc4cnc5[nH]ccc5c4)c3)CC2)=C(c2ccc(Cl)cc2)C1` [Example 240, N-({4-[(1-tert-butylpiperidin-4-yl)amino]-3-[(trifluoromethyl)sulfonyl]phenyl}sulfonyl)-4-(4-{[2-(4-chlorophenyl)-4,4-dimethylcyclohex-1-en-1-yl]methyl}piperazin-1-yl)-2-(1H-pyrrolo[2,3-b]pyridin-5-yloxy)benzamide], with under 0.01 nM.
Under `CC1(C)CCC(CN2CCN(c3ccc(C(=O)NS(=O)(=O)c4ccc(NCC5CN(C6COC6)CCO5)c(S(=O)(=O)C(F)(F)F)c4)c(Oc4cnc5[nH]ccc5c4)c3)CC2)=C(c2ccc(Cl)cc2)C1` (stereo not drawn) [Example 241, 4-(4-{[2-(4-chlorophenyl)-4,4-dimethylcyclohex-1-en-1-yl]methyl}piperazin-1-yl)-N-({4-({[4-(oxetan-3-yl)morpholin-2-yl]methyl}amino)-3-[(trifluoromethyl)sulfonyl]phenyl}sulfonyl)-2-(1H-pyrrolo[2,3-b]pyridin-5-yloxy)benzamide] stands under 0.01 nM; under `CC1(C)CCC(CN2CCN(c3ccc(C(=O)NS(=O)(=O)c4cnc(NCC5(F)CCOCC5)c(Cl)c4)c(Oc4cnc5[nH]ccc5c4)c3)CC2)=C(c2ccc(Cl)cc2)C1` [Example 242, N-[(5-chloro-6-{[(4-fluorotetrahydro-2H-pyran-4-yl)methyl]amino}pyridin-3-yl)sulfonyl]-4-(4-{[2-(4-chlorophenyl)-4,4-dimethylcyclohex-1-en-1-yl]methyl}piperazin-1-yl)-2-(1H-pyrrolo[2,3-b]pyridin-5-yloxy)benzamide], 0.057 nM.
Then `CC1(C)CCC(CN2CCN(c3ccc(C(=O)NS(=O)(=O)c4cnc(NC5CCN(C6CC6)CC5)c(Cl)c4)c(Oc4cnc5[nH]ccc5c4)c3)CC2)=C(c2ccc(Cl)cc2)C1` [Example 243, N-({5-chloro-6-[(1-cyclopropylpiperidin-4-yl)amino]pyridin-3-yl}sulfonyl)-4-(4-{[2-(4-chlorophenyl)-4,4-dimethylcyclohex-1-en-1-yl]methyl}piperazin-1-yl)-2-(1H-pyrrolo[2,3-b]pyridin-5-yloxy)benzamide], with 0.546 nM; and `CC1(C)CCC(CN2CCN(c3ccc(C(=O)NS(=O)(=O)c4cnc(OC[C@@H]5CN(CC#N)CCO5)c(Cl)c4)c(Oc4cnc5[nH]ccc5c4)c3)CC2)=C(c2ccc(Cl)cc2)C1` [Example 244, N-[(5-chloro-6-{[(2S)-4-(cyanomethyl)morpholin-2-yl]methoxy}pyridin-3-yl)sulfonyl]-4-(4-{[2-(4-chlorophenyl)-4,4-dimethylcyclohex-1-en-1-yl]methyl}piperazin-1-yl)-2-(1H-pyrrolo[2,3-b]pyridin-5-yloxy)benzamide], with 0.281 nM; and `CN(C)CC(=O)N1CCO[C@H](COc2ncc(S(=O)(=O)NC(=O)c3ccc(N4CCN(CC5=C(c6ccc(Cl)cc6)CC(C)(C)CC5)CC4)cc3Oc3cnc4[nH]ccc4c3)cc2Cl)C1` [Example 245, N-[(5-chloro-6-{[(2S)-4-(N,N-dimethylglycyl)morpholin-2-yl]methoxy}pyridin-3-yl)sulfonyl]-4-(4-{[2-(4-chlorophenyl)-4,4-dimethylcyclohex-1-en-1-yl]methyl}piperazin-1-yl)-2-(1H-pyrrolo[2,3-b]pyridin-5-yloxy)benzamide], with 0.015 nM.
As to `CC1(C)CCC(CN2CCN(c3ccc(C(=O)NS(=O)(=O)c4cnc(OC[C@H]5CN(CC#N)CCO5)c(Cl)c4)c(Oc4cnc5[nH]ccc5c4)c3)CC2)=C(c2ccc(Cl)cc2)C1` [Example 246, N-[(5-chloro-6-{[(2R)-4-(cyanomethyl)morpholin-2-yl]methoxy}pyridin-3-yl)sulfonyl]-4-(4-{[2-(4-chlorophenyl)-4,4-dimethylcyclohex-1-en-1-yl]methyl}piperazin-1-yl)-2-(1H-pyrrolo[2,3-b]pyridin-5-yloxy)benzamide], the inhibitory constant (Ki) turned out to be 0.144 nM.
Take `CN(C)CC(=O)N1CCO[C@@H](COc2ncc(S(=O)(=O)NC(=O)c3ccc(N4CCN(CC5=C(c6ccc(Cl)cc6)CC(C)(C)CC5)CC4)cc3Oc3cnc4[nH]ccc4c3)cc2Cl)C1` [Example 247, N-[(5-chloro-6-{[(2R)-4-(N,N-dimethylglycyl)morpholin-2-yl]methoxy}pyridin-3-yl)sulfonyl]-4-(4-{[2-(4-chlorophenyl)-4,4-dimethylcyclohex-1-en-1-yl]methyl}piperazin-1-yl)-2-(1H-pyrrolo[2,3-b]pyridin-5-yloxy)benzamide]: the Ki turned out to be 0.019 nM.
Take `CC1(C)CCC(CN2CCN(c3ccc(C(=O)NS(=O)(=O)c4cnc(OCC5(F)CCOCC5)c(F)c4)c(Oc4cnc5[nH]ccc5c4)c3)CC2)=C(c2ccc(Cl)cc2)C1` [Example 248, 4-(4-{[2-(4-chlorophenyl)-4,4-dimethylcyclohex-1-en-1-yl]methyl}piperazin-1-yl)-N-({5-fluoro-6-[(4-fluorotetrahydro-2H-pyran-4-yl)methoxy]pyridin-3-yl}sulfonyl)-2-(1H-pyrrolo[2,3-b]pyridin-5-yloxy)benzamide]: the Ki was 0.029 nM.

The values are drawn from patent publication US8580794B2 (AbbVie Inc., priority 2009, dated 2013).
